According to patent publication US7335679B2 (Arizona Board of Regents on behalf of the University of …, priority 2001, dated 2008):

System: C57BL6 mice
Test: in vivo toxicity in mice, ip daily for 4 days
Settings: ip daily × 4, MTD = >10% body weight loss
Excerpt: Highlighted are the compounds being made for antitumor testing.

SMILES: COC[C@H]1OC(=O)c2coc3c2[C@@]1(C)C1=C(C3=O)[C@@H]2CCC(=O)[C@@]2(C)C[C@H]1OC(C)=O [wortmannin, reference compound]
- Maximum tolerated dose mg/kg ip qD × 4: 2.5 mg/kg
